Measured values reported in ChEMBL document CHEMBL4376860, “Discovery of Novel Dual Poly(ADP-ribose)polymerase and Phosphoinositide 3-Kinase Inhibitors as a Promising Strategy for Cancer Therapy” (J Med Chem, 2020).

Experiments:
[1] = molecular target: Phosphatidylinositol 4,5-bisphosphate 3-kinase catalytic subunit alpha isoform (Homo sapiens, UniProt P42336); assay: Inhibition of PI3Kalpha (unknown origin) using PIP2 as substrate measured after 1 hr by ADP-glo plus luminescence assay
[2] = molecular target: Poly [ADP-ribose] polymerase 1 (Homo sapiens, UniProt P09874); assay: Inhibition of recombinant human PARP1 using histone as substrate after 1 hr in presence of biotinylated NAD+ by ELISA
Chain of Poly [ADP-ribose] polymerase 1 (P09874 whole entry): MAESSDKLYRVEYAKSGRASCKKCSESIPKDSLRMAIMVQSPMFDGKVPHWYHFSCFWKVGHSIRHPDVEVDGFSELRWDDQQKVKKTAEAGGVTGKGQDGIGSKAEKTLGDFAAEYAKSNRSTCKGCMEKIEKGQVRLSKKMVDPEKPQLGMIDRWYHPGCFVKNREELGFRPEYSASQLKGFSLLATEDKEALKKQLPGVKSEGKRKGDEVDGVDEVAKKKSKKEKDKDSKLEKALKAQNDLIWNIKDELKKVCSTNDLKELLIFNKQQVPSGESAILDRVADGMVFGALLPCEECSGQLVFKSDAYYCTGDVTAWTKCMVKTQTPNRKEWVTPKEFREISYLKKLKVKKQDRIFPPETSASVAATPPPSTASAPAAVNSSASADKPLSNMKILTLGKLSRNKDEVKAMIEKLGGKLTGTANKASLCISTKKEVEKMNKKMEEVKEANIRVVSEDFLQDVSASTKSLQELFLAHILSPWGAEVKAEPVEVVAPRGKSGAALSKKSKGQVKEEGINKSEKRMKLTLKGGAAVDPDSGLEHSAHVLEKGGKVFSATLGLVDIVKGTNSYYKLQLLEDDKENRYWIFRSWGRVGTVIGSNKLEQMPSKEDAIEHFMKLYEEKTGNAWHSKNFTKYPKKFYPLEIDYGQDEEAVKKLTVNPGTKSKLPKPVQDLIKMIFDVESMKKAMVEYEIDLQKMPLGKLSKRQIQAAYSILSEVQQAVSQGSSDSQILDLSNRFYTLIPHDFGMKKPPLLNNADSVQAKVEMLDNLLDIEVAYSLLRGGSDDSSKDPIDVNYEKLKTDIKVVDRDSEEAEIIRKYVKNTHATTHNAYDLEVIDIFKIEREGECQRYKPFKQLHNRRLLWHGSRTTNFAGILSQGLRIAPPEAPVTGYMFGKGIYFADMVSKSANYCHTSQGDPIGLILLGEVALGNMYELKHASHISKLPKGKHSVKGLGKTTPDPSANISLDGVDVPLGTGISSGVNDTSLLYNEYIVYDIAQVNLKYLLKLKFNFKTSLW

Chain of Phosphatidylinositol 4,5-bisphosphate 3-kinase catalytic subunit alpha isoform (P42336 whole entry, canonical isoform): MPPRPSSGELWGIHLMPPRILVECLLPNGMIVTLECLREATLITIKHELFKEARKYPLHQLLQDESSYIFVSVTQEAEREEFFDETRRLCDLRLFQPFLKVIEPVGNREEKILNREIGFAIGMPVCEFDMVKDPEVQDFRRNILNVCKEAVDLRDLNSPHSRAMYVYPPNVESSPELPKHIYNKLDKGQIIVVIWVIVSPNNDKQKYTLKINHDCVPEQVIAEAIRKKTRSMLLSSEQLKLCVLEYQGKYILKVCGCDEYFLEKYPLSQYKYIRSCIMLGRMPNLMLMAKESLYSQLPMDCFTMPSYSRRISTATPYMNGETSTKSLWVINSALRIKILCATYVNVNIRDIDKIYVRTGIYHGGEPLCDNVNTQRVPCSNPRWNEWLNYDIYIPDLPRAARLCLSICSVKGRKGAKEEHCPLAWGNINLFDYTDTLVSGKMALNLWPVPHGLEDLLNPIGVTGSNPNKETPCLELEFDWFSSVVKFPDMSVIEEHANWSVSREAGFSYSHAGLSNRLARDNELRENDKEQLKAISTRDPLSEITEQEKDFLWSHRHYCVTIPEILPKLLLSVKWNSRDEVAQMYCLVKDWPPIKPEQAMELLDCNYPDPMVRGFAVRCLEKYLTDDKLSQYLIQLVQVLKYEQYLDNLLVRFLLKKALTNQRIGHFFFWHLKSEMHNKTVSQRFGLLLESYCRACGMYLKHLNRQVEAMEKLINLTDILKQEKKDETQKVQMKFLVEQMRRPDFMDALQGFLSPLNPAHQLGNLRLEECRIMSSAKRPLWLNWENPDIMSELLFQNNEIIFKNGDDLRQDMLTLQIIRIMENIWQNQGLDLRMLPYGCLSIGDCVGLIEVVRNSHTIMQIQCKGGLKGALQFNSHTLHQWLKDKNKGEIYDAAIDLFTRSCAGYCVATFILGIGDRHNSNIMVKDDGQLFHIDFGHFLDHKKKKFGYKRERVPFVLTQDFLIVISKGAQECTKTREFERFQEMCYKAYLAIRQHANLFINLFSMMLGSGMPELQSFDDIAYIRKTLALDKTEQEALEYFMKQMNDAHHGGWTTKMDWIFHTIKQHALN

Row | IC50 [1] | IC50 [2] | Structure (SMILES)
1 | 562 nM | 0.832 nM | Nc1ccc(-c2nc(N3CCOCC3)nc(N3CCN(C(=O)c4cc(Cc5n[nH]c(=O)c6ccccc56)ccc4F)CC3)n2)cc1F
2 | 2290 nM | 1.1 nM | Nc1cc(-c2nc(N3CCOCC3)nc(N3CCN(C(=O)c4cc(Cc5n[nH]c(=O)c6ccccc56)ccc4F)CC3)n2)ccc1F
3 | 132 nM | 1.07 nM | Nc1ccc(-c2nc(N3CCOCC3)nc(N3CCN(C(=O)c4cc(Cc5n[nH]c(=O)c6ccccc56)ccc4F)CC3)n2)cn1
4 | 331 nM | 1.17 nM | Nc1ccc(-c2nc(N3CCOCC3)nc(N3CCN(C(=O)c4cc(Cc5n[nH]c(=O)c6ccccc56)ccc4F)CC3)n2)cc1
5 | 692 nM | 0.692 nM | O=C(c1cc(Cc2n[nH]c(=O)c3ccccc23)ccc1F)N1CCN(c2nc(-c3ccc4[nH]ccc4c3)nc(N3CCOCC3)n2)CC1

More lines, now with the values behind:

Row | Structure (SMILES) | IC50 [1] | IC50 [2]
6 | O=C(c1cc(Cc2n[nH]c(=O)c3ccccc23)ccc1F)N1CCc2c(nc(-c3cccc4[nH]ccc34)nc2N2CCOCC2)C1 | 43.7 nM | 4.9 nM
7 | O=C(c1cc(Cc2n[nH]c(=O)c3ccccc23)ccc1F)N1CCN(c2nc(-c3cccc4[nH]ccc34)nc(N3CCOCC3)n2)CC1 | 631 nM | 0.646 nM
8 | O=C(c1cc(Cc2n[nH]c(=O)c3ccccc23)ccc1F)N1CCc2c(nc(-c3cccc4[nH]ncc34)nc2N2CCOCC2)C1 | 44.7 nM | 6.17 nM
9 | O=C(c1cc(Cc2n[nH]c(=O)c3ccccc23)ccc1F)N1CCN(c2nc(-c3cccc4[nH]ncc34)nc(N3CCOCC3)n2)CC1 | 347 nM | 0.437 nM
